As a reminder, the TGI is the concentration giving total growth inhibition. A low value points to greater sensitivity of the cells.

The structures appear in SMILES notation.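 Five compound concentrations were applied to cells in 96-well plates for 48 hours; endpoints were derived by simple linear interpolation of the resulting dose-response curve. Definition used: TGI = concentration required for complete inhibition of growth.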

Among the test systems are A498 renal; A549 NSCLC; ACHN renal; EKVX NSCLC; HCT-15 colon; HL-60(TB) leukemia; HOP-92 NSCLC; HT29 colon; NCI-H226 lung; NCI-H522 lung; SF-268 CNS; SK-MEL-28 melanoma; SK-MEL-5 melanoma; SK-OV-3 ovarian; UO-31 renal; MALME-3M melanoma; OVCAR-4 ovarian; RPMI-8226 leukemia; U251 CNS; NCI/ADR-RES ovarian.
Holding throughout (assay): DTP human tumour cell line panel, 48 h

Regarding `CCO/N=[N+](\[O-])N(CC)CC`, the TGI in the test with A498 renal, in the test on A549 NSCLC, in the test on ACHN renal, with EKVX NSCLC, in the test on HCT-15 colon and in the test on HL-60(TB) leukemia was > 100 µM in each case. Further, the TGI with HOP-92 NSCLC, in the test on HT29 colon, in the test with NCI-H226 lung, with NCI-H522 lung, with SF-268 CNS and in the test on SK-MEL-28 melanoma was > 100 µM in each case. Moreover, the TGI in the test with SK-MEL-5 melanoma, in the test with SK-OV-3 ovarian and with UO-31 renal was > 100 µM in each case.

In the case of `COc1ccc(-c2cc(N3CCN(c4ccccc4)CC3)c(C#N)c(=O)o2)cc1`, the TGI in the test with A498 renal is 64.9 µM; in the test on A549 NSCLC it was > 100 µM; in the test with ACHN renal it was > 100 µM; in the test with EKVX NSCLC it was > 100 µM; in the test on HCT-15 colon, > 100 µM; in the test on HL-60(TB) leukemia it was > 100 µM. Also, the TGI with HOP-92 NSCLC was > 100 µM; in the test on HT29 colon, > 100 µM; with MALME-3M melanoma it was 53.7 µM; in the test on NCI-H226 lung it was 9.94 µM; with OVCAR-4 ovarian, 15 µM; in the test on RPMI-8226 leukemia, > 100 µM. Further, the TGI was 49.3 µM in the test on SF-268 CNS; 77.6 µM in the test on SK-MEL-28 melanoma; > 100 µM in the test on SK-MEL-5 melanoma; > 100 µM in the test on U251 CNS; 44.8 µM in the test on UO-31 renal.

As to `COc1cc(C2c3cc4c(cc3[C@@H](Nc3cccc(C(C)=O)c3)C3COC(=O)[C@H]23)OCO4)cc(OC)c1O` (stereo partly specified), the TGI is 1.6 µM with A498 renal; 1.99 µM in the test on A549 NSCLC; > 22.3 µM in the test on EKVX NSCLC; 2.06 µM in the test with HCT-15 colon; 0.328 µM with HL-60(TB) leukemia; 14.8 µM in the test on HOP-92 NSCLC. Further, the TGI in the test with HT29 colon was 6.53 µM; with MALME-3M melanoma it was 15 µM; with NCI-H226 lung, 1.99 µM; in the test on NCI-H522 lung it was 5.77 µM; with NCI/ADR-RES ovarian it was > 100 µM; in the test with OVCAR-4 ovarian it was > 100 µM. For the same molecule, the TGI in the test on RPMI-8226 leukemia was 2.21 µM; in the test with SF-268 CNS it was 13.1 µM; with SK-MEL-28 melanoma it was 50.6 µM; in the test on SK-MEL-5 melanoma, 2.37 µM; with SK-OV-3 ovarian, 5.28 µM; in the test on U251 CNS it was 9.97 µM. The TGI in the test on UO-31 renal came to 6.89 µM.

For `C=C1C(=O)OC2C1CC(O)/C(C)=C\CCC1(C)OC21` (stereo unspecified), the TGI with A498 renal was > 100 µM; in the test with A549 NSCLC, > 100 µM; with ACHN renal, > 100 µM; in the test with EKVX NSCLC it was > 100 µM; in the test on HCT-15 colon it was 33.5 µM; with HL-60(TB) leukemia, 83.8 µM. Further, the TGI in the test with HOP-92 NSCLC was > 100 µM; in the test on HT29 colon, > 100 µM; in the test on MALME-3M melanoma, 45.4 µM; with NCI-H522 lung it was 33 µM; with NCI/ADR-RES ovarian, 62.3 µM; with OVCAR-4 ovarian, > 100 µM. In addition, the TGI is 65.4 µM in the test with RPMI-8226 leukemia; 86.6 µM in the test on SF-268 CNS; 91.1 µM with SK-MEL-28 melanoma; 47.5 µM with SK-MEL-5 melanoma; > 100 µM in the test with SK-OV-3 ovarian; 54.8 µM with U251 CNS. Moreover, the TGI with UO-31 renal worked out at 66.6 µM.

Take `O=C(CSCC(=O)N/N=C\c1ccc(-c2ccccc2)cc1)N/N=C\c1ccc(-c2ccccc2)cc1`: the TGI in the test on A549 NSCLC was 54.4 µM; in the test on ACHN renal it was 55.9 µM; with EKVX NSCLC it was > 100 µM; in the test with HCT-15 colon, > 100 µM; in the test on HOP-92 NSCLC it was > 100 µM; in the test on HT29 colon, 76.6 µM. Moreover, the TGI in the test on MALME-3M melanoma was 64.1 µM; in the test on NCI-H226 lung it was 84.5 µM; in the test on NCI-H522 lung it was 37.2 µM; in the test on NCI/ADR-RES ovarian it was > 100 µM; in the test on OVCAR-4 ovarian, 46.5 µM; with SF-268 CNS, 53.9 µM. Further, the TGI in the test on SK-MEL-28 melanoma is > 100 µM; in the test on SK-MEL-5 melanoma, > 100 µM; in the test on SK-OV-3 ovarian, 38.9 µM; in the test on U251 CNS, 31.5 µM; in the test on UO-31 renal, > 100 µM.

For the molecule `c1ccc(-c2nn(-c3ccccc3)[n+](-c3ccccc3)n2)cc1`, the TGI is > 100 µM in the test with A498 renal; > 100 µM in the test on A549 NSCLC; > 100 µM with ACHN renal; > 43 µM in the test on EKVX NSCLC; > 100 µM in the test with HCT-15 colon; 6.47 µM in the test on HL-60(TB) leukemia. Besides, the TGI is 96.3 µM in the test with HOP-92 NSCLC; > 100 µM in the test on HT29 colon; 2.93 µM with MALME-3M melanoma; > 100 µM with NCI-H226 lung; > 86.3 µM in the test on NCI-H522 lung; > 100 µM with NCI/ADR-RES ovarian. For the same molecule, the TGI in the test with OVCAR-4 ovarian was > 100 µM; in the test with SF-268 CNS, > 38.8 µM; with SK-MEL-28 melanoma, > 100 µM; with SK-MEL-5 melanoma, 14.1 µM; with SK-OV-3 ovarian, > 100 µM; in the test on U251 CNS it was > 100 µM. Further, in the test with UO-31 renal, the TGI is > 100 µM.

For `CC(C)(Br)C1(O)CCCN1C(=O)c1ccccc1` (stereo unspecified), the TGI with A498 renal, in the test with A549 NSCLC, in the test on ACHN renal, with EKVX NSCLC, in the test on HCT-15 colon and in the test on HL-60(TB) leukemia was > 100 µM throughout. Also, the total growth inhibition concentration (TGI) with HOP-92 NSCLC, with HT29 colon, in the test on MALME-3M melanoma, in the test on NCI-H522 lung, with SF-268 CNS and in the test on SK-MEL-28 melanoma was > 100 µM each time. Moreover, the TGI in the test with SK-MEL-5 melanoma, in the test with SK-OV-3 ovarian, with U251 CNS and with UO-31 renal was > 100 µM in each case.

In the case of `CC12Cc3cc4c(cc3C1(c1ccc([N+](=O)[O-])cc1)OCCO2)OCO4` (stereo unspecified), the TGI in the test on A498 renal, in the test on A549 NSCLC, with ACHN renal, in the test with EKVX NSCLC, in the test on HCT-15 colon and in the test on HL-60(TB) leukemia was > 100 µM throughout. For the same molecule, the TGI with HT29 colon is > 100 µM; with MALME-3M melanoma, > 100 µM; in the test with NCI-H226 lung, 86.7 µM; with NCI-H522 lung, > 100 µM; in the test on NCI/ADR-RES ovarian, > 100 µM; in the test on OVCAR-4 ovarian it was > 100 µM. Moreover, the TGI in the test with RPMI-8226 leukemia was > 100 µM; in the test on SF-268 CNS, 71.6 µM; with SK-MEL-28 melanoma it was > 100 µM; in the test on SK-MEL-5 melanoma, > 100 µM; in the test with SK-OV-3 ovarian, 47.6 µM; in the test with U251 CNS it was > 100 µM. The TGI with UO-31 renal is > 100 µM.

(Values after PubChem BioAssay (NCI).)
